Data on two compounds can be found in US4539333A, “Prostacyclin, methods of using and method of making” (Burroughs Wellcome Co., priority 1976, dated 1985).

Data set [1] has as its system blood pressure. Description: Blood pressure and heart rate in normotensive anaesthetised rats. The following applies: injected intravenously and intra-aortically. Format: in vivo. As to the method:
Prostacyclin was injected intravenously and intra-aortically into normotensive anaethetised rats and the blood pressure and heart rate recorded.

For data set [2], the system named is isolated hearts from rabbits. The data set can be described thus: Isolated hearts perfused at constant flow rate by the Langendorf technique. Conditions: rabbit hearts.
The test system of data set [3] is strips of rabbit aorta. Description: Contraction of rabbit aorta strips (cascade superfusion bioassay). As to the method:
Aortic microsomal powder (5 mg) was incubated with 1 μg of prostalgandin endoperoxide (PGG2 or PGH2) in 0.05 M Tris buffer (pH 7.5) (1 ml.) for 2 minutes at 22° C. Enzyme activity was estimated by direct bioassay of the incubation mixture. After incubation of 2 minutes at 22° C. all prostaglandin endoperoxide activity was lost indicated by a lack of contraction of rabbit aorta strips when assayed by the cascade superfusion technique of Vane (Br. J. Pharmacy. 23, 369-373, 1964 indicating 100% conversion of PGG2 or PGH2.

Data set [4] deals with gastric lesions induced by indomethacin. Description: Gastric lesions induced in rats by indomethacin. Format: in vivo. Conditions: doses from 62.5 to 250 μg/kg, subcutaneous injection.
Data set [5] can be described thus: Stability of Prostacyclin and of its anti-aggregatory activity (aqueous medium, storage). It counts as physicochemical. As to the method:
Prostacyclin is unstable at room temperature in aqueous medium, having a half-life of approximately 10 mins., but its anti-aggregatory activity can be preserved for several days by dissolving the substance in aqueous alkali or in dry acetone and storing at -20° C. […] Prostacyclin also interrupts and reverses the presence of platelet aggregation.
The anti-aggregatory activity of the extracted Prostacyclin disappeared on bioling (15 seconds) or on standing at 22° C. for 20 minutes. The anti-aggregatory activity of Prostacyclin could be preserved for several days by dissolving the substance in dry acetone and storing at -20° C.

For data set [6], the system named is human platelet rich plasma (PRP). Description: Aggregation of platelets in fresh human platelet rich plasma, Born aggregometer. It counts as cell-based. As to the method:
Aggregation of platelets in 1 ml. of fresh human platelet rich plasma (PRP) was monitored in a Born aggregometer. An immediate anti-aggregatory effect of the fresh reaction mixture of Example 1 of aortic microsomes with PGH2 or PGG2 was observed. The lowest anti-aggregatory concentration was obtained with samples containing 0.5-5 ng. Prostacyclin/ml.

Data set [7] deals with strips of coeliac and mesenteric arteries. Description: Relaxation of strips of coeliac and mesenteric arteries. Further details: species or system rabbit.
In data set [8] the test system is strips of coronary artery from the ox. The data set can be described thus: Relaxation of spirally cut strips of coronary artery. Conditions: dose dependent effect. As to the method:
The effect is dose dependent and relaxation can be seen with doses as low as 20 nanograms per 5 ml bath.

In data set [9] the test system is rabbit aorta, rabbit coeliac artery, rat stomach strip and rat colon. The data set can be described thus: Profile of biological activity on isolated tissues. As to the method:
5.xi.-Iodo-9-deoxy-6.xi., 9α-epoxyprostaglandin F1α methyl ester (500 mg) was stirred with methanolic NaOMe prepared from Na (0.23 g., 10 equivs.) and MeOH (3.5 ml.) under N2 at room temperature overnight; 1N aq. NaOH (2.5 ml.) was added to the yellow reaction solution to bring about hydrolysis of the ester moiety and, after 2 hours, the methanol was evaporated in vacuo at room temperature. The residual aqueous solution gave rise spontaneously to a mass of colourless fine needles of the desired sodium salt (formula (I): R=Na) which was cooled (0°), collected, washed sparingly with 1N aq. NaOH, air-dried, and stored in a stoppered tube; this salt (383 mg.) had max (KBr disc) 1692 cm^-1 [drawing 4] and twenty ^13 C resonances only were observed (at 182.7 (C-1), 158.2 (C-6), 140.0 and 134.3 (C-13, 14), 100.7(C-5), 87.5(C-15), 80.6 and 75.5(C-9, 11), 58.0(C-12), 49.0, 45.8, 42.4, 41.9, 37.5, 35.8 (C-18), 31.6., 29.9, 29.3, 26.7(C-19), and 18.4(C-20) ppm from TMS in DMSO-d6). The product, sodium (5Z)- 5,6-didehydro-9-deoxy-6,9α-epoxyprostaglandin F1α (syn. sodium prostacyclin), thus obtained completed inhibited arachidonic acid-induced platelet aggregation (human platelet-rich plasma) at 1 ng./ml. and its profile of biological activity on the rabbit aorta, rabbit coeliac artery, rat stomach strip and rat colon conformed with that of sodium prostacyclin obtained by biosynthesis. […]

As for `CCCCC[C@H](O)/C=C/[C@@H]1[C@H]2C/C(=C/CCCC(=O)O)O[C@H]2C[C@H]1O` [Prostacyclin, (5Z)-5,6-didehydro-9-deoxy-6,9α-epoxyprostaglandin F1α], the “vasodepressor potency relative to PGE2” value in data set [1] is 5 times. Besides, in [2], the “effect on coronary vessels” value is “produced coronary vasodilation”. In addition, the “effect on strips of rabbit aorta” value in data set [3] is reported as “does not contract”. In [4], the “effect on formation of gastric lesions” value is reported as “inhibit the formation of gastric lesions”. The “anti-aggregatory activity after boiling” value in data set [5] (boiling, 15 seconds, extracted Prostacyclin) was “disappeared”. In addition, in data set [5] (dissolved in dry acetone (b5: or aqueous alkali), stored at -20° C.), the “time for which anti-aggregatory activity is preserved on storage” value was “several days”. For the same compound, in [5] (room temperature, aqueous medium), the half-life was about 10 min. Also, the “anti-aggregatory activity after standing” value in [5] (standing at 22° C. for 20 minutes, extracted Prostacyclin) was “disappeared”. The minimal effective concentration in data set [6] (Platelet, fresh reaction mixture of aortic microsomes with PGH2 or PGG2, 1 ml human PRP, read-out: lowest anti-aggregatory concentration) lay within 0.0005 to 0.005 µg/mL. Moreover, in [6] (diethyl ether extracts), the “effect on platelet aggregation induced by arachidonic acid and PGG2” value is recorded as “inhibited”. The “anti-aggregatory potency relative to PGD2” value in [6] (times more potent than PGD2, on average) is 5-20 times. The “anti-aggregatory potency relative to PGE1” value in data set [6] (times more potent than PGE1, on average) was 10-40 times. Also, in data set [7], the “effect on strips of coeliac and mesenteric arteries” value was “relaxed”; the “potency compared with PGE2 on coeliac and mesenteric artery strips” value is reported as “less potent than PGE2”. Moreover, the “lowest dose at which relaxation can be seen” value in data set [8] was 20 nanograms per 5 ml bath.
Take `CCCCC[C@H](O)/C=C/[C@@H]1[C@H]2C/C(=C/CCCC(=O)O)O[C@H]2C[C@H]1O` [sodium prostacyclin, sodium (5Z)-5,6-didehydro-9-deoxy-6,9α-epoxyprostaglandin F1α]: in [5] (water, acid pH), the “stability in water at acid pH” value was “instability”. For the same compound, the IC100 in data set [6] (arachidonic acid-induced, human platelet-rich plasma, read-out: concentration giving complete inhibition of arachidonic acid-induced platelet aggregation) was determined as 0.001 µg/mL. Further, the “profile of biological activity compared with sodium prostacyclin obtained by biosynthesis” value in [9] is “conformed”.
